Test [1] relates to DLD1 WT cells. The experiment in a line: 7-day cell viability assay (CellTiter-Glo), DLD1 parental (WT). The format is cell-based, human. Particulars: 7-day CellTiter-Glo, n=2. In general terms: Cellular ATP, detected with luciferase, serves as a proxy for viable cell number.
For test [2], the target named is biotinylated Avi-POLθ[2-894] (Homo sapiens (Human), UniProt O75417). As to the kind of experiment: POLθ ATPase assay (ADP-Glo). Particulars: POLθ ATPase, ADP-Glo; n=2; read-out: Biochemical ATPase ADPGlo IC50. A general note: ADP-Glo turns the ADP formed in a reaction into a luminescent signal.
Sequence of biotinylated Avi-POLθ[2-894] (O75417 2-894): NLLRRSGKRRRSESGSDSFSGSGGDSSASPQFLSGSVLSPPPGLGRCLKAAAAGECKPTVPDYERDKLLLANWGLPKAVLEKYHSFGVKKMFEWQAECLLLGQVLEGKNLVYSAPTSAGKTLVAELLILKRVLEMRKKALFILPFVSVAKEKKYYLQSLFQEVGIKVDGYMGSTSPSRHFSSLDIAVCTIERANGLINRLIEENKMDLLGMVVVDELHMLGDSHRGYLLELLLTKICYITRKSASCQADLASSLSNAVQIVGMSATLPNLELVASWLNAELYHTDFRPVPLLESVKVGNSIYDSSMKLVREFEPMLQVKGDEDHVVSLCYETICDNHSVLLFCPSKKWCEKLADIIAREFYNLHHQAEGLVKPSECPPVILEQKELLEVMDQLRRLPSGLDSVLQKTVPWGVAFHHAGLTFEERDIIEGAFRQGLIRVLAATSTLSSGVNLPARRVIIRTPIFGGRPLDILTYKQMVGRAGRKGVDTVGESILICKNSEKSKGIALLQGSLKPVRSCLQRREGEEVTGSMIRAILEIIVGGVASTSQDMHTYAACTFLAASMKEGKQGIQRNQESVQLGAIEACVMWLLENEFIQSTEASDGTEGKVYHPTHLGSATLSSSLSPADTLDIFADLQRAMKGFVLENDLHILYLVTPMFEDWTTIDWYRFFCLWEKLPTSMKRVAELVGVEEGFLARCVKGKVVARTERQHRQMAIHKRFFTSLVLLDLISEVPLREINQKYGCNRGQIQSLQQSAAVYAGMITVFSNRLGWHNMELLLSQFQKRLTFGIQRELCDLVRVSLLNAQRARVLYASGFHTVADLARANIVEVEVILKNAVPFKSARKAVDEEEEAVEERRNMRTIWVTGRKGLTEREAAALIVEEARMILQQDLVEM
Test [3] relates to DLD1 BRCA2 (−/−) cells. As to the kind of experiment: 7-day cell viability assay (CellTiter-Glo), DLD1 BRCA2 (−/−). The format is cell-based, human. Particulars: 7-day CellTiter-Glo, n=2, read-out: Viability IC50 (uM) DLD1 BRCA2 null. Put shortly: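 7-day growth assay in DLD1 cells with or without BRCA2; seeding densities chosen to keep log-linear growth. Compound: 10 uM top, 3-fold, 9 points. Endpoint: CTG ATP luminescence at RT.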

Read-outs that look alike come from different tables or passages of the source. Some results are limits rather than exact numbers.

In patent publication US20250230171A1 (MOMA Therapeutics, Inc., priority 2023, published 2025) one finds IC50 data, which are given here for ten compounds.

By IC50 is commonly meant the concentration that gives 50% inhibition.

Turning to `COc1cnc(Cl)cc1-c1cc(C)ncc1C(=O)Nc1nc2c(s1)CN(C(=O)c1ccc(Cl)c(OC)n1)C2` [Example 421], the IC50 in test [1] (Homo sapiens, DLD-1, 168 h) lay in the range of 2 to 5 µM; in test [2], 1 to 15 nM; in test [3] (Homo sapiens, DLD-1, 168 h) it was 0.001 to 0.1 µM.

As for `COc1cnc(Cl)cc1-c1cc(C)ncc1C(=O)Nc1nc2c(s1)CN(C(=O)c1cccn3nccc13)C2` [Example 424], the IC50 is ≥ 10 µM in test [1] (Homo sapiens, DLD-1, 168 h); 1 to 15 nM in test [2]; 0.001 to 0.1 µM in test [3] (Homo sapiens, DLD-1, 168 h).

`COc1cnc(Cl)cc1-c1cc(C)ncc1C(=O)Nc1nc2c(s1)CN(C(=O)c1c(Cl)ccnc1OC)C2` [Example 460]: the IC50 in test [1] (Homo sapiens, DLD-1, 168 h) was in the range of 5 to 10 µM; in test [2], 1 to 15 nM; in test [3] (Homo sapiens, DLD-1, 168 h), 0.001 to 0.1 µM.

Regarding `COc1ccc(C#N)cc1-c1cc(C)ncc1C(=O)Nc1nc2c(s1)CN(C(=O)c1cccc(C(F)F)c1Cl)C2` [Example 487], the IC50 in test [1] (Homo sapiens, DLD-1, 168 h) is ≥ 10 µM; in test [2] it was 1 to 15 nM; in test [3] (Homo sapiens, DLD-1, 168 h), 0.001 to 0.1 µM.

On to `COc1cnc(C(F)F)c(C(=O)N2Cc3nc(NC(=O)c4cnc(C)cc4-c4cc(Cl)ncc4OC)sc3C2)n1` [Example 503, 2′-Chloro-N-(5-(3-(difluoromethyl)-6-methoxypyrazine-2-carbonyl)-5,6-dihydro-4H-pyrrolo[3,4-d]thiazol-2-yl)-5′-methoxy-6-methyl-[4,4′-bipyridine]-3-carboxamdie], for which the IC50 in test [1] was ≥ 10 µM; in test [2], 1 to 15 nM; in test [3] it was 0.001 to 0.1 µM.

Regarding `COc1nc(OC)c(-c2cc(C)ncc2C(=O)Nc2nc3c(s2)CN(C(=O)c2ccc(C(F)(F)F)nc2OC)C3)cc1Cl` [Example 1036, 5-chloro-2,6-dimethoxy-N-(5-(2-methoxy-6-(trifluoromethyl)nicotinoyl)-5,6-dihydro-4H-pyrrolo[3,4-d]thiazol-2-yl)-6′-methyl-[3,4′-bipyridine]-3′-carboxamide], the IC50 in test [1] (Homo sapiens, DLD-1, 168 h) was ≥ 10 µM; in test [2], 1 to 15 nM; in test [3] (Homo sapiens, DLD-1, 168 h), 0.001 to 0.1 µM.

Regarding `COc1cnc(Cl)cc1-c1cc(C)ncc1C(=O)Nc1nc2c(s1)C(C)N(C(=O)c1ccc(C(F)(F)F)nc1OC)C2` (stereo not drawn) [Example 1040, 2′-chloro-5′-methoxy-N-(S-(2-methoxy-6-(trifluoromethyl)nicotinoyl)-6-methyl-5,6-dihydro-4H-pyrrolo[3,4-d]thiazol-2-yl)-6-methyl-[4,4′-bipyridine]-3-carboxamide], the IC50 in test [1] (Homo sapiens, DLD-1, 168 h) is ≥ 10 µM; in test [2] it was 1 to 15 nM; in test [3] (Homo sapiens, DLD-1, 168 h), 0.001 to 0.1 µM.

Consider `COc1cnc(C(F)F)nc1-c1cc(C)ncc1C(=O)Nc1nc2c(s1)CN(C(=O)c1ccc(C(F)(F)F)nc1OC)C2` [Example 1042, 4-(2-(difluoromethyl)-5-methoxypyrimidin-4-yl)-N-(5-(2-methoxy-6-(trifluoromethyl)nicotinoyl)-5,6-dihydro-4H-pyrrolo[3,4-d]thiazol-2-yl)-6-methylnicotinamide], for which the IC50 was ≥ 10 µM in test [1] (Homo sapiens, DLD-1, 168 h); 1 to 15 nM in test [2]; 0.001 to 0.1 µM in test [3] (Homo sapiens, DLD-1, 168 h).

Regarding “N-(5-(2-Chloro-5-(difluoromethyl)benzoyl)-5,6-dihydro-4H-pyrrolo[3,4-d]thiazol-2-yl)-4-(5-cyano-2-methoxyphenyl)-6-methylnicotinamide [Example 489]”, the values for the IC50 in test [1], in test [2] and in test [3] were 5 to 10 µM, 1 to 15 nM and 0.001 to 0.1 µM, respectively.

On to “N-(5-(4-Chloro-2-methoxybenzoyl)-5,6-dihydro-4H-pyrrolo[3,4-d]thiazol-2-yl)-4-(5-cyano-2-methoxyphenyl)-6-methylnicotinamide [Example 437]”, for which the IC50 is ≥ 10 µM in test [1], 1 to 15 nM in test [2] and 0.001 to 0.1 µM in test [3].
